Assay results: US8349553B2, “Jasmonate based assays for identifying compounds that selectively inhibit mitochondrial bound hexokinases” (Ramot at Tel Aviv University Ltd., priority 2007, dated 2013)

Tests used:
[1] = tested on: HKI and HKII (mitochondrial fraction of B16 tumors); assay: Western blot of supernatants with anti-HKI and anti-HKII, B16 tumor mitochondrial fraction; type: biochemical, murine; settings: B16 tumor mitochondrial fraction supernatant
Description: For analysis of hexokinase levels, the experiments were performed similarly to hexokinase detachment assay described above, and unbound hexokinase in the supernatant fraction was extracted as described in Fingrut (2005). Samples were separated by sodium dodecylsulfate-polyacrylamide gel (7%) electrophoresis followed by immunoblotting. The blots were probed with specific anti-HKI or anti-HKII antibodies (1:300, Santa-Cruz Biotechnology, CA, USA). Hexokinase-antibody complexes were stained with HRP-conjugated antibody (1:10,000, Santa-Cruz Biotechnology, CA, USA). Enhanced chemiluminescence (ECL) reagent (Biological Industries, Beit Haemek, Israel) was added, and the blots were exposed to ECL film (Eastman Kodak, Rochester, N.Y., USA). Hexokinase detachment from mitochondrial fraction is not limited to CT-26 colon carcinoma. Mitochondrial fractions isolated from different cancer cells, namely Molt-4 cells, BCL-1 leukemic cells and B16 melanoma tumors were incubated for 30 minutes at 37° C., and the activity of unbound hexokinase was measured and compared to the activity of spontaneously (control) detached hexokinase. […] The supernatant of the experiments were separated on SDS-PAGE and probed with anti-HKI and anti-HKII antibodies.

[2] = molecular target: T1, voltage-dependent anion channel (Rattus norvegicus, UniProt Q9Z2L0); assay: Voltage-dependent anion channel recording in planar lipid bilayer (channel alone); type: biochemical; settings: 3 mM; voltage stepped from 0 mV to −40 mV
T1 construct: purified mitochondrial voltage-dependent anion channel reconstituted into a planar lipid bilayer; from tissue; host or cells: rat liver mitochondria
T1 sequence (Q9Z2L0 whole entry): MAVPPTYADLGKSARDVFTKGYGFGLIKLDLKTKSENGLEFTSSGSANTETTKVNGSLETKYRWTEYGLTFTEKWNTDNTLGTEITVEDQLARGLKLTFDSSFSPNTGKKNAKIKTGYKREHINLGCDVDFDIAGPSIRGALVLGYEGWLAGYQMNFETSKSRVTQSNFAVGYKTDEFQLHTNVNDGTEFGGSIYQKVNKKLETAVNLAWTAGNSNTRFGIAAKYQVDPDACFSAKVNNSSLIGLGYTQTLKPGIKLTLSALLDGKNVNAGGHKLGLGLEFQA
Description: Currents were measured with respect to the trans side of the membrane (ground).

[3] = tested on: mitochondrial fraction of mouse brain; assay: Mitochondrial swelling assay, mouse brain; type: biochemical; settings: 1 mM
Description: Freshly isolated mitochondrial fraction was washed with extraction buffer to remove EDTA and resuspended in swelling buffer (Mannitol 220 mM, Sucrose 70 mM, Tris, pH 7.2, 150 mM, KH2PO4, pH 7.2, 0.2 mM; 0.2 mg in 100 μL) freshly supplemented with potassium succinate, pH 7.2, 5 mM. Every component was sodium-free. Optical density was monitored at the wave length of 540 nm for 2-5 minutes before the addition of the examined reagents, e.g. methyl jasmonate, and for additional 20 minutes afterwards.
In order to examine the consistency of the relationship between the ability of methyl jasmonate to detach bound hexokinase and mitochondrial damage, methyl jasmonate was tested in mouse brain in comparison to mouse liver. The comparison was performed due to known differences of mitochondrial hexokinase content between mouse brain vs. its liver. It is well established in the art that brain mitochondrial fraction is rich in bound hexokinase, while liver mitochondrial fraction is essentially devoid of it (Wilson, 1995). […] Mitochondrial fractions were incubated for either 10, 30 or 60 minutes at 37° C. The activity of unbound hexokinase was measured and compared to the activity of spontaneously (control) detached hexokinase. Consequently, the ability of methyl jasmonate to induce swelling in mitochondrial fraction isolated from mouse brain and liver was tested.

CC/C=C\CC1C(=O)CCC1CC(=O)OC (stereo not drawn) [methyl jasmonate]
detachment of hexokinase confirmed by immunoblot (anti-HKI, anti-HKII) [1]: detachment of hexokinase from mitochondrial fraction of the various cancer cells was further confirmed
current passing through voltage-dependent anion channel (no hexokinase) [2]: showed no effect on the current passing through voltage-dependent anion channel
mitochondrial swelling (optical density at 540 nm) [3]: led to swelling in brain
